Experimental data as given in patent publication EP0363326A2, “Fungicidal amines” (SANDOZ AG, priority 1988, dated 1990).

Columns and labels:
[1] = test system: Pseudocercosporella herpotrichoides; details: causal agent of eyespot of cereals; cited from earlier work
Gerlachia nivalis = test: inhibition zone test, treated wheat seeds on agar containing the fungus; format: cell-based; details: seed dressing, evaluated one week after placing on agar
Description: (§1) The efficacy against seed-borne diseases can be illustrated by the inhibition zone test: single seeds treated with a seed dressing formulation comprising the compound to be tested e.g. with the seed dressing formulation according to Example 2 (hereinafter described) are placed on agar containing the seed-borne fungus. […] The size of the inhibition zone is evaluated one week after the seed has been placed on the agar. The activity is expressed as the concentration (in g per 100 kg seed) resulting in 90 % or more growth inhibition of the fungal mycelium.

Pyrenophora graminea [2] = test: inhibition zone test, treated barley seeds on agar containing the fungus; format: cell-based; details: seed dressing, evaluated one week after placing on agar
Description: as §1

Septoria nodorum = test: inhibition zone test, treated wheat seeds on agar containing the fungus; format: cell-based; details: seed dressing, evaluated one week after placing on agar
Description: as §1

Cochliobulus sativus = test: inhibition zone test, treated barley seeds on agar containing the fungus; format: cell-based; details: seed dressing, evaluated one week after placing on agar
Description: as §1

Pyrenophora teres = test: as above; format: cell-based; details: seed dressing, evaluated one week after placing on agar
Description: as §1

Ustilago nuda = test: Outdoor pot test, spring barley seed dressing; format: in vivo; details: dosage 8 g a.i./100kg seed
Description: (§2) Spring barley seed naturally infested by Pyrenophora graminea are treated with a seed dressing formulation according to Example 1 and sown in pots filled with a substrate equivalent to a sandy loam in a growth chamber at 10°C with 14-17 hours daylight. The determination of the fungal control involves a visual evaluation 60 days after said dressing and sowing.
(§3) Analogous tests are run outdoors under naturally occurring wheather conditions with spring barley infected by Pyrenophora graminea and Ustilago nuda. […]

Pyrenophora graminea [3] = test: Outdoor pot test, spring barley seed dressing; format: in vivo; details: dosage 8 g a.i./100kg seed
Description: as §2, §3

Fusarium culmorum = test: inhibition zone test, treated wheat seeds on agar containing the fungus; format: cell-based; details: seed dressing, evaluated one week after placing on agar
Description: as §1

Pyrenophora graminea [4] = test: Indoor pot test, spring barley seed dressing; format: in vivo; details: dosage 8 g a.i./100kg seed, growth chamber 10°C, visual evaluation 60 days after dressing and sowing
Description: as §2

Row | Molecule | fungicidal activity in in-vitro tests [1] | Concentration (g/100 kg Seed) providing ≧90% control (Gerlachia nivalis) | Concentration (g/100 kg Seed) providing ≧90% control (Pyrenophora graminea [2]) | Concentration (g/100 kg Seed) providing ≧90% control (Septoria nodorum) | Concentration (g/100 kg Seed) providing ≧90% control (Cochliobulus sativus) | Concentration (g/100 kg Seed) providing ≧90% control (Pyrenophora teres) | % Control outdoors U. nuda (Ustilago nuda) | % Control outdoors P. gram. (Pyrenophora graminea [3]) | Concentration (g/100 kg Seed) providing ≧90% control (Fusarium culmorum) | % Control indoors P. gram. (Pyrenophora graminea [4])
1 | CN(C/C=C/C#CC(C)(C)C)Cc1cccc2ccccc12 [CH₃, terbinafine] | fungicidal activity | <5 g/100 kg Seed | <5 g/100 kg Seed | – | – | – | – | – | – | –
2 | C=CCOC(Cn1ccnc1)c1ccc(Cl)cc1Cl (stereo not shown) [Standard A, Imazalil] | – | – | 8 g/100 kg Seed | 8 g/100 kg Seed | 4 g/100 kg Seed | 8 g/100 kg Seed | – | – | – | –
3 | CCCC(C)(C)C#CC=CCN(C)Cc1cccc2ccccc12 [nC₃H₇, N-(6,6-Dimethyl-2-nonen-4-inyl)-N-Methyl-1-naphthylmethylamine] | – | 2 g/100 kg Seed | 2 g/100 kg Seed | 2 g/100 kg Seed | 2 g/100 kg Seed | 4 g/100 kg Seed | 100% | 80% | 8 g/100 kg Seed | 80-90%
4 | CN(C/C=C/c1ccccc1)Cc1cccc2ccccc12 [naftifine] | fungicidal activity | – | – | – | – | – | – | – | – | –
5 | Guazatine | – | 8 g/100 kg Seed | – | – | – | – | – | – | 4 g/100 kg Seed | –
